Experimental data taken from ChEMBL document CHEMBL3352452, “Phosphoinositide-3-kinase inhibitors: evaluation of substituted alcohols as replacements for the piperazine sulfonamide portion of AMG 511” (Bioorg Med Chem Lett, 2014).
Calls of active or inactive are those of the source. The rule behind the calls is not given here.

Assays:
[1] = Intrinsic clearance in rat liver microsomes at 1 uM after 30 mins; format: ADME; conditions: read-out: CLH
[2] = Intrinsic clearance in human liver microsomes at 1 uM after 30 mins; format: ADME; conditions: read-out: CLH
[3] = target: Serine/threonine-protein kinase mTOR (Homo sapiens, UniProt P42345); experiment: Inhibition of recombinant N-terminally GST-tagged mTOR (1360 to 2549 aa) (unknown origin) assessed as inhibition of 27BP1 phosphorylation after 90 mins by TR-FRET assay
[4] = target: PI3-kinase p110-alpha/p85-alpha (Homo sapiens, UniProt P42336); experiment: Inhibition of human N-terminal poly-His tagged p110 alpha/ p85alpha expressed in Sf9 Baculovirus system after 20 mins by AlphaScreen assay
[5] = Inhibition of PI3K-mediated Akt S473 phosphorylation in human U87MG cells after 2 hrs by cell-based assay; parameters: species or system U-87MG ATCC; conditions: U-87 MG
[6] = Terminal half life in Sprague-Dawley rat at 1 mg/kg, iv and 2 mg/kg, po; format: ADME, organism-based; conditions: in vivo, read-out: beta t1/2 (converted)
[7] = Clearance in Sprague-Dawley rat at 1 mg/kg, iv and 2 mg/kg, po; format: ADME, organism-based; conditions: in vivo
[8] = Fraction unbound in Sprague-Dawley rat plasma at 1 mg/kg, iv and 2 mg/kg, po; format: ADME, organism-based
[9] = test system: Mus musculus; experiment: Inhibition of HGF-induced PI3K-mediated Akt phosphorylation at Ser473 in female CD1 nude mouse liver at 10 to 30 mg/kg, po administered 6 hrs prior HGF treatment measured after 5 mins by electrochemical luminescence immunoassay; format: functional, organism-based
[10] = test system: Mus musculus; experiment: Inhibition of HGF-induced PI3K-mediated Akt phosphorylation at Ser473 in female CD1 nude mouse liver compound administered orally 6 hrs prior HGF treatment measured after 5 mins by electrochemical luminescence immunoassay; format: functional, organism-based
[11] = Volume of distribution at steady state in Sprague-Dawley rat at 1 mg/kg, iv and 2 mg/kg, po; format: ADME, organism-based; conditions: in vivo, read-out: Vdss
[12] = Oral bioavailability in Sprague-Dawley rat at 2 mg/kg; format: ADME, organism-based; conditions: in vivo
[13] = test system: P-gp; experiment: Efflux ratio of permeability across pig LLC-PK1 cells stably over-expressing rat P-gp at 5 uM; format: ADME, cell-based, Sus scrofa

Chain of PI3-kinase p110-alpha/p85-alpha (P27986 whole entry): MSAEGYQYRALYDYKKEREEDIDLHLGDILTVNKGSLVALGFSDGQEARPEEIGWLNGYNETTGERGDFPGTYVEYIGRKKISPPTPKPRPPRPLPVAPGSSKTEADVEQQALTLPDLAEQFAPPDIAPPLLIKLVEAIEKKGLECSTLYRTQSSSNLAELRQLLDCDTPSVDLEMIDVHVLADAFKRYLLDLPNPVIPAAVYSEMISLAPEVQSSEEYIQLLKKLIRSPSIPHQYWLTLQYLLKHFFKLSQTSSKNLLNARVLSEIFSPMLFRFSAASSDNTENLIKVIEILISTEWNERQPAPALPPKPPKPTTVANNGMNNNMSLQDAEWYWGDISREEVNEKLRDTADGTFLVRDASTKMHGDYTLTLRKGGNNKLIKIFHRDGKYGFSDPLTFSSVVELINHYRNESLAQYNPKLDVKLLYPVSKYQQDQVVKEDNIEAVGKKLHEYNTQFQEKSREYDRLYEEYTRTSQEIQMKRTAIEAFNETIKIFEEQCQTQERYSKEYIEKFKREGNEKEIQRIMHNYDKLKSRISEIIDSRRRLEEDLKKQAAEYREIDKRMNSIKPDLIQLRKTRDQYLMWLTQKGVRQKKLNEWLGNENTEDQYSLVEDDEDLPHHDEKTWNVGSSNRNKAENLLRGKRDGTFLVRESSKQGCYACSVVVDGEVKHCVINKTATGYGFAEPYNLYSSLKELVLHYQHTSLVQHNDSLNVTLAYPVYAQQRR
Chain of PI3-kinase p110-alpha/p85-alpha (P42336 whole entry): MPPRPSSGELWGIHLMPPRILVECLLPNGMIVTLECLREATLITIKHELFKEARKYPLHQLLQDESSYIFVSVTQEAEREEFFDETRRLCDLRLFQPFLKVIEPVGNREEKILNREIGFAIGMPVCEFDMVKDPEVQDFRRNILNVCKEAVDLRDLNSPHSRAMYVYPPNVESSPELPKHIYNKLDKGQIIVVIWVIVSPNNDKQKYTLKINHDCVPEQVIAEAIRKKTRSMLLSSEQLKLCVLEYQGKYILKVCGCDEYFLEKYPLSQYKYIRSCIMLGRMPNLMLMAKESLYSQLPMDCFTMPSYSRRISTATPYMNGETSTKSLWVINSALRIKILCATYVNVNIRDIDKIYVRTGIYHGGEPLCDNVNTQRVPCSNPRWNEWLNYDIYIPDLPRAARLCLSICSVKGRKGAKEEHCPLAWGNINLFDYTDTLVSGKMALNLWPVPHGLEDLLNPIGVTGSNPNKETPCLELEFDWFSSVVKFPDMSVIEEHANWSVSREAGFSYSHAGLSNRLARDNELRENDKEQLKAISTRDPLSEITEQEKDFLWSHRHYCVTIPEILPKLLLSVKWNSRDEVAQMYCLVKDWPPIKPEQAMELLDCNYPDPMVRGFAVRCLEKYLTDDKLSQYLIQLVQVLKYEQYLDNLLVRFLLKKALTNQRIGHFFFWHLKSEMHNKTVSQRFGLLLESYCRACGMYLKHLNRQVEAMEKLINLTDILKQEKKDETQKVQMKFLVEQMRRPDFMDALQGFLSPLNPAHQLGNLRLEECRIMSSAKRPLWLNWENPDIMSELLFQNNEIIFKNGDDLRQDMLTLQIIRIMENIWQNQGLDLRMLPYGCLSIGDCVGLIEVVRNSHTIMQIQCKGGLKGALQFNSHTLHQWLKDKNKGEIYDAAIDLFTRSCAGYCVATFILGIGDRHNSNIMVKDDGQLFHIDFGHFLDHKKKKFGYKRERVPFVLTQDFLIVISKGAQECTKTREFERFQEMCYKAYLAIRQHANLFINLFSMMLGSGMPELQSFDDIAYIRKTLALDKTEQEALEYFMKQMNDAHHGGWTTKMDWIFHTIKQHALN

| SMILES | microsomal CLint at 1 µM [1] [µL/min/mg] | microsomal CLint at 1 µM [2] [µL/min/mg] | IC50 [3] [µM] | Ki [4] [µM] | IC50 [5] [µM] | further results |
| --- | --- | --- | --- | --- | --- | --- |
| COc1ncc(Nc2ncccc2-c2nc(C)nc(N)n2)cc1F | 36 | 99 | > 22 | 0.048 | – | – |
| COc1ncc(Nc2ncc(C(C)(C)O)cc2-c2nc(C)nc(N)n2)cc1C(F)(F)F | – | – | > 25 | – | – | – |
| Cc1nc(N)nc(-c2cc(C(C)(C)O)cnc2Nc2cncc(S(=O)(=O)c3ccccc3)c2)n1 | – | – | 6.7 | 0.224 | – | – |
| COc1ncc(Nc2ncc([C@@H](C)CO)cc2-c2nc(C)nc(N)n2)cc1F | 37 | < 14 | > 15 | 0.04 | – | – |
| Cc1nc(N)nc(-c2cc(C(C)(C)O)cnc2Nc2cncc(F)c2)n1 | 15 | < 14 | 2.5 | 0.087 | – | – |
| CCc1cc(Nc2ncc(C(C)(C)O)cc2-c2nc(C)nc(N)n2)cnc1OC | – | – | 15.8 | 0.469 | 0.47 | – |
| COc1ccc(Nc2ncc(C(C)(C)O)cc2-c2nc(C)nc(N)n2)cn1 | 19 | < 14 | 0.79 | 0.089 | 0.048 | – |
| Cc1nc(N)nc(-c2cc(C(C)(C)O)cnc2Nc2cncc(S(C)(=O)=O)c2)n1 | < 14 | < 14 | > 16 | – | 1.16 | – |
| COc1ncc(Nc2ncc([C@H](C)O)cc2-c2nc(C)nc(N)n2)cc1F | < 14 | < 14 | > 25 | 0.048 | 0.026 | – |
| COc1ncc(Nc2ncc([C@@H](C)N3CCN(S(C)(=O)=O)CC3)cc2-c2nc(C)nc(N)n2)cc1F | 20 | – | – | – | – | half-life [6]: 3.3 h; clearance [7]: 0.45 L/h/kg; fraction unbound [8]: 0.08 |
| COc1ncc(Nc2ncc(C(C)(C)O)cc2-c2nc(C)nc(N)n2)cc1C(C)C | – | – | > 25 | 0.153 | 0.414 | – |
| COc1ncc(Nc2ncc([C@@H](C)O)cc2-c2nc(C)nc(N)n2)cc1F | 45 | 22 | > 25 | 0.04 | 0.02 | – |
| COc1ncc(Nc2ncc(C(C)(C)CO)cc2-c2nc(C)nc(N)n2)cc1F | 34 | 34 | > 17 | 0.04 | – | – |
| COc1ncc(Nc2ncc(C3(O)CC3)cc2-c2nc(C)nc(N)n2)cc1F | 79 | 39 | 3.7 | 0.016 | 0.018 | – |
| COc1ncc(Nc2ncc(C(C)(C)O)cc2-c2nc(C)nc(N)n2)cc1C | 22 | < 14 | 7.8 | 0.118 | 0.049 | – |
| COc1ncc(Nc2ncc(C(O)C(F)(F)F)cc2-c2nc(C)nc(N)n2)cc1F (racemic) | 34 | 18 | 2.2 | 0.03 | – | – |
| COc1ncc(Nc2ncc(C(C)(C)O)cc2-c2nc(C)nc(N)n2)cc1F | 23 | < 14 | 7.8 | 0.023 | – | half-life [6]: 3.1 h; clearance [7]: 1.1 L/h/kg; inhibition [9]: Active; fraction unbound [8]: 0.06; inhibition [10]: Dose-dependent effect; Vd [11]: 1.7 L/kg; bioavailability [12]: 37% |
| COc1cc(Nc2ncc(C(C)(C)O)cc2-c2nc(C)nc(N)n2)cnc1OC | < 14 | < 14 | 10.6 | 0.03 | 0.01 | efflux ratio at 5 µM [13]: 25; half-life [6]: 4.8 h; clearance [7]: 1.3 L/h/kg; Vd [11]: 4.2 L/kg |
| COc1cncc(Nc2ncc(C(C)(C)O)cc2-c2nc(C)nc(N)n2)c1 | 19 | 17 | 2.1 | 0.089 | – | – |
| COc1ncc(Nc2ncc(CO)cc2-c2nc(C)nc(N)n2)cc1F | 51 | – | > 15 | 0.056 | 0.044 | – |
| COc1ncc(Nc2ncc([C@H](C)CO)cc2-c2nc(C)nc(N)n2)cc1F | 36 | 14 | 11.1 | 0.026 | – | – |
